According to article PMC10579715 (Plant Biotechnology Journal, 2023):

Test system: LmUGT73P1
Assay: LC-QTOF-MS/MS rhamnosyltransferase assay, Michaelis-Menten plot
Format: biochemical, Lonicera macranthoides
Settings: 10 mM UDP-Rha, 50 mM Tris-HCl pH 7.5, 37 °C, 20 min

`CC1(C)CC[C@]2(C(=O)O)CC[C@]3(C)C(=CC[C@@H]4[C@@]5(C)CC[C@H](O[C@@H]6OC[C@H](O)[C@H](O)[C@H]6O)[C@@](C)(CO)[C@@H]5CC[C@]43C)[C@@H]2C1` [cauloside A] was tested. Which Km did it give?
Its Km is 33 µM.
